According to PMC11665553, “12-Lipoxygenase inhibition delays onset of autoimmune diabetes in human gene replacement mice” (JCI Insight, 2024):
Several values for one entry are separate records, joined by “and”; a condition that tells them apart may be missing. Identical values can stand only once. Entries after “also recorded” stand apart in the source; their conditions may differ.

Key:
[1] = test system: B6.hALOX12 mice; test: Multiple low-dose STZ-induced diabetes in B6.hALOX12 mice (random-fed blood glucose, GTT, β cell mass); conditions: for Blood glucose (Fig 1H) / GTT blood glucose (Fig 1I): individual animals; for Random-fed blood glucose (Fig 1E) / GTT blood glucose (Fig 1F): hAlox12 mice, listed as ML355, 30 mg/kg; for Random-fed blood glucose (Fig 1E): 30 mg/kg i.p. + STZ
Method: Intraperitoneal GTTs (IPGTTs) were performed in mice after overnight fasting (16 hours). Mice were i.p. injected with glucose at a dose of 1 or 2 g/kg body weight and blood glucose levels were measured at specific time points: 0, 10, 20, 30, 60, 90, and 120 minutes after glucose injection using an AlphaTrak glucometer.
Random-fed glucose levels were measured by tail snip using a glucometer (AlphaTrak), and mice were followed for 20 days after STZ injections. IPGTT was performed on day 4 after STZ treatments after overnight fasting.

[2] = test system: 12-LOX products; test: Serum lipidomics (LC-MS/MS) of 12-LOX and non-12-LOX products in NOD.hALOX12 mice; assay type: in vivo, mouse
Method: Lipidomics analysis (by LC-MS/MS) was performed for a series of 12-LOX products resulting from different fatty acid substrates (Figure 2A).

[3] = Pharmacokinetics after single p.o. dose in C57BL/6J mice (plasma LC-MS/MS)
[4] = Pharmacokinetics after single p.o. dose in NOD.ShiLt/J mice (plasma LC-MS/MS); assay type: in vivo, mouse; conditions: 30 mg/kg p.o., mean ± SD
Excerpt: The NOD mouse model is a model of T1D that recapitulates many of the immune and β cell features of the disease ([20]). […] To address this question, we introgressed humanized hALOX12 mice onto the NOD background using a speed congenics approach. […] We next measured human 12-LOX protein levels in the NOD.hALOX12 mice.

[5] = test system: NOD.hALOX12 mice; test: Islet cell death and proliferation staining (TUNEL, H2A.X, PCNA) in NOD.hALOX12 mice
Excerpt: We, therefore, immunostained pancreatic sections for markers of cell death and proliferation in the islet.
Pancreatic tissues were fixed using 4% paraformaldehyde. After fixation, the tissues were embedded in paraffin and sectioned with a thickness of 5 μm. Three sections per mouse were used for analysis, with each section being spaced 100 μm apart. Tissue sections were immunostained with anti-insulin (ProteinTech, 15848-1-AP; 1:200), anti-glucagon (Abcam, ab92517; 1:200), anti–12-LOX (Thermo Fisher Scientific, PA5-26020; 1:200), anti–12/15-LOX (Abcam, ab80221; 1:200), anti-CD3 (Abcam, ab16669; 1:200), anti-F4/80 (Sigma-Aldrich, D2S9R; 1:150), anti-MAC2 (Thermo Fisher Scientific, EbioM3/38; 1:200), and anti-H2A.X (Cell Signaling Technology, 9718s; 1:200) primary antibodies followed by conjugated anti-rabbit Ig (Vector Laboratories) secondary antibody. A DAB (3,3′-diaminobenzedine) Peroxidase Substrate Kit from Vector Laboratories was used for detection. After immunostaining, the tissue sections were counterstained with hematoxylin (Sigma-Aldrich). Images were acquired using a BZ-X810 fluorescence microscope (Keyence) and β/α cell mass was quantified by insulin^+ or glucagon^+ area and whole pancreas area.
For immunofluorescent staining, pancreatic sections were stained with the following antibodies: anti-insulin (Dako, IR002; 1:4), anti-glucagon (Santa Cruz Biotechnology, sc514592; 1:50), anti-B220 (BioLegend, 03201; 1:100), anti-CD3 (Abcam, ab16669; 1:200), anti-PCNA (Santa Cruz Biotechnology, sc-7907; 1:100), anti–4-HNE (Abcam, ab46545; 1:200), and anti-GPx1 (Santa Cruz Biotechnology, sc-22145; 1:100). Highly cross-adsorbed Alexa Fluor secondary antibodies (Thermo Fisher Scientific) were used at a dilution of 1:500. Tissue sections were stained with DAPI (Thermo Fisher Scientific) to label cell nuclei. The Nikon A1 confocal microscopy was used to capture images. CellProfiler v4.1 software (https://cellprofiler.org/) was used for image analysis.
A TUNEL assay was used to determine β cell death in pancreatic islets. The assay was performed according to the protocol provided by the manufacturer (Abcam) and HRP-DAB chemistry was used for detection. Two sections, spaced 100 μm apart, were used for each mouse. Images were captured using a BZ-X810 fluorescence microscope system (Keyence). The number of TUNEL^+ cells was assessed manually per islet.

[6] = test system: human islets; set-up: method as in PMID 28609824; conditions: cited from earlier work
[7] = test system: BMDMs from NOD.hALOX12 mice; test: RNA sequencing of M0 and M1-like polarized BMDMs; assay type: cell-based, mouse
Excerpt: BMDMs were unpolarized (M0) or polarized to an M1-like state (with lipopolysaccharide and IFN-γ) to mimic the inflammatory state that might be observed during T1D pathogenesis.
These common genes mapped to pathways related to cytokine-mediated signaling, T cell activation, and antigen processing and presentation (Supplemental Figure 3B). […] The 507 genes altered with vehicle treatment mapped to GO pathways related to the M1 polarization phenotype (myeloid cell differentiation, immune response, response to cytokines) and pathways related to oxidative stress (cell redox homeostasis, response to hydrogen peroxides) (Figure 5E). These pathways were not identified in the genes that were differentially expressed during VLX-1005 treatment.
BMDMs were isolated from 8-week-old NOD.hALOX12 mice as described previously ([2]). The isolated BMDMs were cultured for 7 days in complete medium (RPMI 1640 containing 10% FBS, 10 mM HEPES, and 100 U/mL penicillin/streptomycin) supplemented with 10 ng/mL M-CSF. […] After 1-hour pretreatment, the BMDMs were further stimulated with 10 ng/mL LPS and 25 ng/mL IFN-γ for 18 hours for M1-like polarization. RNA was isolated and used for sequencing.
RNA extraction was performed using RLT Buffer, according to the manufacturer’s instructions (Qiagen). Samples were submitted for library generation and sequencing by the University of Chicago sequencing core using a NovaSeq 6000 (Illumina). Data were analyzed using Galaxy (https://usegalaxy.org/). Reads were aligned to the Mus musculus genome build mm10 using HISAT2 (https://daehwankimlab.github.io/hisat2/). Individual sample reads were quantified using HTseq-count and normalized using DESeq2 (https://bioconductor.org/packages/release/bioc/html/DESeq2.html). DEseq2 was also used to calculate FCs and P values and to perform optional covariate correction. GO was used for pathway analysis.

[8] = B6.hALOX12 mice, 30 mg/kg p.o., STZ
[9] = female NOD.hALOX12 mice, 30 mg/kg p.o., 1 week
[10] = serum, individual animals, listed as VLX
[11] = C57BL/6J, mouse, plasma, po, 30 mg/kg
[12] = female NOD.hALOX12 mice, 4 weeks of treatment
[13] = sheet Fig 4D, individual mice, listed as VLX
[14] = sheet Fig 5G, 4 replicates, listed as VLX

## COc1cccc(CNc2ccc(S(=O)(=O)Nc3nc4ccccc4s3)cc2)c1O [VLX-1005]
[1]; [8]
  Glucose tolerance vs vehicle: significantly improved glucose tolerance
  Random-fed blood glucose levels vs vehicle: lower random-fed blood glucose levels
  β cell mass at end of study vs vehicle: greater β cell mass
[1]; B6.hALOX12 mice, 30 mg/kg p.o., day 4 after STZ, individual mice, 30 mg/kg
  GTT AUC (Fig 1J): 38575 and 27605 and 37915 and 32740 and 28655 and 39615
[1]; B6.hALOX12 mice, 30 mg/kg p.o., day 26 after STZ, individual mice, listed as VLX, 30 mg/kg
  β cell mass (Fig 1K): 0.4287 and 0.8456 and 0.5623 and 0.6492 and 1.024
[1]; B6.hALOX12 vs WT C57BL/6J mice, both 30 mg/kg i.p., after STZ
  Glucose tolerance (GTT): improved glucose tolerance
[1]; day 1
  Blood glucose (Fig 1H): 293 and 265 and 377 and 281 and 389 and 367
[1]; day 4
  Blood glucose (Fig 1H): 209 and 312 and 289 and 205 and 311 and 272
[1]; day 8
  Blood glucose (Fig 1H): 346 and 273 and 297 and 307 and 219 and 303
[1]; day 11
  Blood glucose (Fig 1H): 435 and 460 and 385 and 378 and 441 and 298
[1]; day 16
  Blood glucose (Fig 1H): 427 and 543 and 470 and 301 and 405 and 380
[1]; day 18
  Blood glucose (Fig 1H): 571 and 573 and 426 and 374 and 417 and 346
[1]; day 23
  Blood glucose (Fig 1H): 474 and 543 and 550 and 331 and 533 and 356
[1]; day 25
  Blood glucose (Fig 1H): 630 and 501 and 416 and 359 and 457 and 307
[1]; day 28
  Blood glucose (Fig 1H): 426 and 551 and 530 and 363 and 483 and 470
[1]; day -3
  Blood glucose (Fig 1H): 296 and 262 and 381 and 299 and 367 and 314
[1]; hALOX12 mice, 30 mg/kg i.p., day 4 after STZ, individual mice, 30 mg/kg
  GTT AUC (Fig 1G): 24945 and 29635 and 27915 and 36735
[1]; day 0, individual mice
  Random-fed blood glucose (Fig 1E): 184 and 194 and 153 and 159
[1]; day 5, individual mice
  Random-fed blood glucose (Fig 1E): 174 and 179 and 181 and 131
[1]; day 10, individual mice
  Random-fed blood glucose (Fig 1E): 195 and 201 and 210 and 180
[1]; day 15, individual mice
  Random-fed blood glucose (Fig 1E): 167 (2×) and 210 and 214
[1]; day 22, individual mice
  Random-fed blood glucose (Fig 1E): 193 and 223 and 208 and 188
[1]; day 27, individual mice
  Random-fed blood glucose (Fig 1E): 216 and 217 and 226 and 193
[1]; day -5, individual mice
  Random-fed blood glucose (Fig 1E): 194 and 201 and 167 and 185
[1]; 30 mg/kg i.p., day 4 after STZ, 0 min after glucose, individual mice
  GTT blood glucose (Fig 1F): 184 and 132 and 122 and 134
[1]; 30 mg/kg i.p., day 4 after STZ, 10 min after glucose, individual mice
  GTT blood glucose (Fig 1F): 401 and 364 and 354 and 369
[1]; 30 mg/kg i.p., day 4 after STZ, 20 min after glucose, individual mice
  GTT blood glucose (Fig 1F): 610 and 557 and 487 and 467
[1]; 30 mg/kg i.p., day 4 after STZ, 30 min after glucose, individual mice
  GTT blood glucose (Fig 1F): 512 and 597 and 398 and 458
[1]; 30 mg/kg i.p., day 4 after STZ, 60 min after glucose, individual mice
  GTT blood glucose (Fig 1F): 361 and 446 and 310 and 375
[1]; 30 mg/kg i.p., day 4 after STZ, 90 min after glucose, individual mice
  GTT blood glucose (Fig 1F): 221 and 387 and 284 and 306
[1]; 30 mg/kg i.p., day 4 after STZ, 120 min after glucose, individual mice
  GTT blood glucose (Fig 1F): 159 and 209 and 223 and 281
[1]; male B6.hALOX12 mice, 30 mg/kg i.p. daily peri-STZ
  Protection from STZ-induced diabetes: complete protection from STZ-induced diabetes
[1]; time 0
  GTT blood glucose (Fig 1I): 403 and 326 and 234 and 245 and 279 and 370
[1]; time 10
  GTT blood glucose (Fig 1I): 585 and 462 (2×) and 543 and 359 and 482
[1]; time 20
  GTT blood glucose (Fig 1I): 636 and 668 and 606 and 558 and 520 and 577
[1]; time 30
  GTT blood glucose (Fig 1I): 577 and 520 and 660 and 662 and 560 and 646
[1]; time 60
  GTT blood glucose (Fig 1I): 488 and 436 and 530 and 581 and 420 and 589
[1]; time 90
  GTT blood glucose (Fig 1I): 345 and 329 and 461 and 457 and 365 and 408
[1]; time 120
  GTT blood glucose (Fig 1I): 239 and 265 and 375 and 360 and 216 and 283
[2]; [9]
  Serum 12-HEPE level vs vehicle: not significantly changed
  Serum 12-HETE level vs vehicle: significantly reduced
  Serum 13-HODE level vs vehicle: significantly reduced
  Serum 14-HDHA level vs vehicle: significantly reduced
  Serum 17-HDHA level vs vehicle: significantly reduced
[2]; [10]
  12-HEPE (Fig 2B): 14.181 and 5.614 and 0.079 and 3.392 and 10.786
  12-HETE (Fig 2B): 1108.62 and 574.602 and 13.903 and 321.764 and 853.064
  13(S)-HODE (Fig 2B): 213.641 and 75.17 and 53.113 and 81.494 and 90.355
  14-HDHA (Fig 2B): 76.057 and 30.285 and 4.719 and 24.172 and 46.818
  15-HETE (Fig 2B): 21.905 and 9.387 and 6.557 and 15.336 and 15.324
  17-HDHA (Fig 2B): 7.358 and 2.244 and 2.092 and 3.507 and 3.423
[3]; C57BL/6J mice, 30 mg/kg p.o., mean ± SD
  AUC%extrap_obs: 0.342 ± 0.133%
[3]; [11]
  AUC(0-inf): 15100 ng·h/mL
  AUC(0-t): 15000 ng·h/mL
  Cmax: 13300 ng/mL
  MRT inf: 2.57 ± 0.38 h
  half-life: 194 ± 4.2 min
[4]; dose-normalized
  AUClast/D: 440 ± 54 ng·h/mL
[4]
  AUC%extrap_obs: 0.115 ± 0.099%
[4]; mouse, plasma, po
  AUC(0-inf): 13200 ng·h/mL
  AUC(0-t): 13200 ng·h/mL
  Cmax: 14300 ng/mL
  half-life: 152 ± 24.6 min
[4]; mouse, plasma, po, read-out: MRTinf_obs
  MRT inf: 3.81 ± 0.71 h
[5]; [12]
  Islet cell death (TUNEL, H2A.X staining) vs vehicle: decreased islet cell death
  β cell proliferation (PCNA immunostaining) vs vehicle: decreased β cell proliferation
[5]; [13]
  H2Ax: 0.25 and 0.166 and 0 and 0.14
  PCNA: 1.4 and 1.2 and 0.9 and 1.83
[6]
  Cytotoxicity in human islets: without evidence of cytotoxicity
[6]; proinflammatory cytokines
  Effect on function of cytokine-treated human islets in vitro: efficacy in reversing the insulin secretory defects; also recorded: protect human islets in vitro against dysfunction caused by proinflammatory cytokines
[7]; 10 μM, P < 0.05 by t test
  Magnitude of changes of IFN pathway genes vs vehicle in M1-like BMDMs: augmented significantly
[7]; [14]
  Adar expression (heat map value): 1.762 and 1.682 and 1.654 and 1.2
  Arrdc4 expression (heat map value): 1.769 and 1.684 and 1.6721 and 1.333
  Ddx3x expression (heat map value): 0.9319 and 0.8926 and 0.8886 and 0.8518
  Dhx58 expression (heat map value): 2.321 and 1.936 and 1.912 and 1.006
  Gigyf2 expression (heat map value): 0.9359 and 0.7566 and 0.751 and 0.4484
  Kat5 expression (heat map value): 0.9038 and 0.7157 and 0.4242 (2×)
  Lrrfip2 expression (heat map value): 1.898 and 1.808 and 1.658 and 1.413
  Mark4 expression (heat map value): 1.966 and 1.936 and 1.657 and 1.006
  Mmp12 expression (heat map value): 0.8105 and 0.4921 (3×)
  Ninj1 expression (heat map value): 1.769 and 1.701 and 1.685 and 1.401
  Nlrp3 expression (heat map value): 2.077 and 1.964 and 1.718 and 1.337
  Nono expression (heat map value): 1.2 and 1.151 and 1.126 and 1.119
  Oas1e expression (heat map value): 2.321 and 1.949 and 1.675 and 1.657
  Pou2f2 expression (heat map value): 1.6038 and 1.537 and 1.347 and 1.324
  Riok3 expression (heat map value): 1.411 and 1.279 and 1.172 and 1.109
  Srebf1 expression (heat map value): 0.9499 and 0.826 and 0.6628 and 0.3958
  Tank expression (heat map value): 2.305 and 1.708 and 1.675 and 0.8815
  Tlr6 expression (heat map value): 2.235 and 2.002 and 1.489 and 1.453
  Tmem126a expression (heat map value): 0.7845 and 0.7743 and 0.7659 and 0.465
  Tomm70a expression (heat map value): 1.572 and 1.428 and 1.219 and 1.127
  Ttll12 expression (heat map value): 2.1636 and 1.773 and 1.7 and 1.671
  Ube2k expression (heat map value): 1.475 and 1.413 and 1.263 and 1.205
